Results published in patent publication US20240252488A1 (KOREA RESEARCH INSTITUTE OF CHEMICAL TECHNOLOGY, priority 2020, published 2024).
pKd: −log10 of the molar value.

Legend:
[1] = tested on: FADD−/− Jurkat cells; assay: Necroptosis inhibition assay, TNF-α-induced necroptosis (CellTiter-Glo 2.0); format: cell-based, human; conditions: TNF-α 15 ng/mL; for Necroptosis inhibition assay (Rescue %) 1 μM: compound 1 μM; for Necroptosis inhibition assay (Rescue %) 10 μM: compound 10 μM
Summary of the method: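 Necroptosis was triggered by TNF-α at 15 ng/mL final following 30 minutes of compound exposure (0.1, 1 or 10 μM final). Incubation ran 20 to 24 hours at 37° C under 5% CO2; cell ATP was then quantified by luminescence.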

[2] = target: T1, MLKL (Homo sapiens, UniProt Q8NB16); assay: MLKL degradation assay in HepG2 cell line (western blot); format: cell-based; design: endogenous in cells; host or cells: HepG2 or HaCaT; conditions: cell line not given; for Degradation assay (Degradation %) 1 μM: compound 1 μM; for Degradation assay (Degradation %) 10 μM: compound 10 μM
T1 sequence (Q8NB16 1-471): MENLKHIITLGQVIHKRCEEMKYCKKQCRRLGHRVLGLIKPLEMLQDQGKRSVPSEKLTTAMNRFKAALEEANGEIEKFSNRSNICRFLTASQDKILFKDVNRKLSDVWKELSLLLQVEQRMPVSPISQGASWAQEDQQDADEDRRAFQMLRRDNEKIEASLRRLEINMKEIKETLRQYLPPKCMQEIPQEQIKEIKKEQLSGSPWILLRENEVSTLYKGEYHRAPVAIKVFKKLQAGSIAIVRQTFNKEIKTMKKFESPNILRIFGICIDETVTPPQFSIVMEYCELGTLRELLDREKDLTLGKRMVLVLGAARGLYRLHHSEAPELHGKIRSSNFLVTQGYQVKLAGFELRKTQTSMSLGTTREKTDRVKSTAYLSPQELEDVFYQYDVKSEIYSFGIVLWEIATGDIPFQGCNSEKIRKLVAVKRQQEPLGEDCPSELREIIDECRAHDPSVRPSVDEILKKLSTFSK
Summary of the method: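 After treating HepG2 with test compounds (final 1 μM or 10 μM) for 20-24 h, we lysed cells, equalized protein by BCA and probed MLKL by overnight primary antibody at 4 °C followed by chemiluminescent detection.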

[3] = target: T1, MLKL; assay: Measurement of binding affinity with MLKL receptor (competitive binding assay, Kd); design: made in house; host or cells: HEK 293 cell line (T7 phage in E. coli BL21-derived host is also described)
Summary of the method: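 Kd comes from a bead-based competition format: compound-dependent loss of DNA-tagged, HEK 293-expressed MLKL capture, measured as eluate kinase by qPCR. Final DMSO is 0.9%.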

SMILES | Degradation assay (Degradation %) 1 μM [2] | Degradation assay (Degradation %) 10 μM [2] | pKd [3] | Necroptosis inhibition assay (Rescue %) 1 μM ([1]; FADD−/− Jurkat cells) | Necroptosis inhibition assay (Rescue %) 10 μM ([1]; FADD−/− Jurkat cells) | Necroptosis inhibition assay (Rescue %) 1 μM [1] | Necroptosis inhibition assay (Rescue %) 10 μM [1] | Necroptosis inhibition assay (Rescue %) 1.1 μM ([1]; compound 1.1 µM)
Nc1ncc(-c2cnn(C3CCN(CCC4CCN(C(=O)c5ccc6c(N7CCC(=O)NC7=O)coc6c5)CC4)CC3)c2)nc1C(=O)O[C@@H](C(=O)Nc1ccc(F)cc1)c1ccccc1 [TDH-552, (R)-2-((4-fluorophenyl)amino)-2-oxo-1-phenylethyl 3-amino-6-(1-(1-(2-(1-(3-(2,4-dioxotetrahydropyrimidin-1(2H)-yl)benzofuran-6-carbonyl)piperidin-4-yl)ethyl)piperidin-4-yl)-1H-pyrazol-4-yl)pyrazine-2-carboxylate] | 92.21% | 75.10% | 9.39 | 31.97% | 6.25% |  |  | 
Nc1ncc(-c2cnn(C3CCN(C(=O)CCC4CCN(C(=O)COc5ccc6c(c5)C(=O)N(C5CCC(=O)NC5=O)C6=O)CC4)CC3)c2)nc1C(=O)O[C@@H](C(=O)Nc1ccc(F)cc1)c1ccccc1 (stereo partly drawn) [TDH-416, (R)-2-((4-fluorophenyl)amino)-2-oxo-1-phenylethyl 3-amino-6-(1-(1-(3-(1-(2-((2-(2,6-dioxopiperidin-3-yl)-1,3-dioxoisoindolin-5-yl)oxy)acetyl)piperidin-4-yl)propanoyl)piperidin-4-yl)-1H-pyrazol-4-yl)pyrazine-2-carboxylate] | 93.24% | 93.04% | 8.62 | 52.88% | 43.06% |  |  | 
Nc1ncc(-c2cnn(C3CCN(CCC4CCN(c5cccc6nnn(C7CCC(=O)NC7=O)c(=O)c56)CC4)CC3)c2)nc1C(=O)OC(C(=O)Nc1ccc(F)cc1)c1ccccc1 (stereo not shown) [TDH-294, 2-((4-fluorophenyl)amino)-2-oxo-1-phenylethyl 3-amino-6-(1-(1-(2-(1-(3-(2,6-dioxopiperidin-3-yl)-4-oxo-3,4-dihydrobenzo[d][1,2,3]triazin-5-yl)piperidin-4-yl)ethyl)piperidin-4-yl)-1H-pyrazol-4-yl)pyrazine-2-carboxylate] | 25.53% | 23.63% | 8.33 |  |  | 67.12% | 33.24% | 
Nc1ncc(-c2cnn(C3CCN(CCCN4CCN(C(=O)c5ccc6c(N7CCC(=O)NC7=O)coc6c5)CC4)CC3)c2)nc1C(=O)O[C@@H](C(=O)Nc1ccc(F)cc1)c1ccccc1 [TDH-551, (R)-2-((4-fluorophenyl)amino)-2-oxo-1-phenylethyl 3-amino-6-(1-(1-(3-(4-(3-(2,4-dioxotetrahydropyrimidin-1(2H)-yl)benzofuran-6-carbonyl)piperazin-1-yl)propyl)piperidin-4-yl)-1H-pyrazol-4-yl)pyrazine-2-carboxylate] | 88.03% | 83.80% | 9.52 | 40.61% | 10.85% |  |  | 
Nc1ncc(-c2cnn(C3CCN(CCCN4CCN(C(=O)COc5ccc6c(c5)C(=O)N(C5CCC(=O)NC5=O)C6=O)CC4)CC3)c2)nc1C(=O)O[C@@H](C(=O)Nc1ccc(F)cc1)c1ccccc1 (stereo partly drawn) [TDH-358, (R)-2-((4-fluorophenyl)amino)-2-oxo-1-phenylethyl 3-amino-6-(1-(1-(3-(4-(2-((2-(2,6-dioxopiperidin-3-yl)-1,3-dioxoisoindolin-5-yl)oxy)acetyl)piperazin-1-yl)propyl)piperidin-4-yl)-1H-pyrazol-4-yl)pyrazine-2-carboxylate] | 91.6% | 86.73% | 9.30 |  |  |  | 39.65% | 100.10 (1.1 µM) %
Nc1ncc(-c2cnn(C3CCN(CCOC4CCN(C(=O)CCc5cccc6c5CN(C5CCC(=O)NC5=O)C6=O)CC4)CC3)c2)nc1C(=O)O[C@@H](C(=O)Nc1ccc(F)cc1)c1ccccc1 (stereo partly drawn) [TDH-387, (R)-2-((4-fluorophenyl)amino)-2-oxo-1-phenylethyl 3-amino-6-(1-(1-(2-((1-(3-(2-(2,6-dioxopiperidin-3-yl)-1-oxoisoindolin-4-yl)propanoyl)piperidin-4-yl)oxy)ethyl)piperidin-4-yl)-1H-pyrazol-4-yl)pyrazine-2-carboxylate] | 85.77% | 66.9% | 8.80 |  |  | 37.82% | 25.00% | 
Nc1ncc(-c2cnn(C3CCN(CCOC4CCN(C(=O)CCc5ccc6c(c5)C(=O)N(C5CCC(=O)NC5=O)C6=O)CC4)CC3)c2)nc1C(=O)O[C@@H](C(=O)Nc1ccc(F)cc1)c1ccccc1 (stereo partly drawn) [TDH-379, (R)-2-((4-fluorophenyl)amino)-2-oxo-1-phenylethyl 3-amino-6-(1-(1-(2-((1-(3-(2-(2,6-dioxopiperidin-3-yl)-1,3-dioxoisoindolin-5-yl)propanoyl)piperidin-4-yl)oxy)ethyl)piperidin-4-yl)-1H-pyrazol-4-yl)pyrazine-2-carboxylate] | 69.78% | 88.75% | 8.54 |  |  | 36.70% | 28.98% | 

Continued by rising pKd [3], values first:

Degradation assay (Degradation %) 1 μM [2] | Degradation assay (Degradation %) 10 μM [2] | pKd [3] | SMILES | Necroptosis inhibition assay (Rescue %) 1 μM ([1]; FADD−/− Jurkat cells) | Necroptosis inhibition assay (Rescue %) 10 μM ([1]; FADD−/− Jurkat cells) | Necroptosis inhibition assay (Rescue %) 1 μM [1] | Necroptosis inhibition assay (Rescue %) 10 μM [1] | Necroptosis inhibition assay (Rescue %) 1.1 μM ([1]; compound 1.1 µM)
37.4% | 30.04% | 7.80 | Nc1ncc(-c2cn(C3CCN(CC4CCN(C(=O)C5CCN(c6cccc7c6C(=O)N(C6CCC(=O)NC6=O)C7=O)CC5)CC4)CC3)nn2)nc1C(=O)OC(C(=O)Nc1ccc(F)cc1)c1ccccc1 (stereo not shown) [TDH-222, 2-((4-fluorophenyl)amino)-2-oxo-1-phenylethyl 3-amino-6-(1-(1-((1-(1-(2-(2,6-dioxopiperidin-3-yl)-1,3-dioxoisoindolin-4-yl)piperidine-4-carbonyl)piperidin-4-yl)methyl)piperidin-4-yl)-1H-1,2,3-triazol-4-yl)pyrazine-2-carboxylate] |  |  | 45.31% | 34.2% | 
81.44% | 77.67% | 8.01 | Nc1ncc(-c2cnn(C3CCN(CC4CCN(C(=O)Cc5cccc(NC6=CC(=O)N(C7CCC(=O)NC7=O)C6=O)c5)CC4)CC3)c2)nc1C(=O)O[C@@H](C(=O)Nc1ccc(F)cc1)c1ccccc1 (stereo partly drawn) [TDH-516, (R)-2-((4-fluorophenyl)amino)-2-oxo-1-phenylethyl 3-amino-6-(1-(1-((1-(2-(3-((1-(2,6-dioxopiperidin-3-yl)-2,5-dioxo-2,5-dihydro-1H-pyrrol-3-yl)amino)phenyl)acetyl)piperidin-4-yl)methyl)piperidin-4-yl)-1H-pyrazol-4-yl)pyrazine-2-carboxylate] | 17.46% | 5.65% |  |  | 
87.27% | 80.23% | 8.92 | Nc1ncc(-c2cnn(C3CCN(CCC4CCN(C(=O)CC5CCN(c6cccc7c6C(=O)N(C6CCC(=O)NC6=O)C7=O)CC5)CC4)CC3)c2)nc1C(=O)O[C@@H](C(=O)Nc1ccc(F)cc1)c1ccccc1 (stereo partly drawn) [TDH-366, (R)-2-((4-fluorophenyl)amino)-2-oxo-1-phenylethyl 3-amino-6-(1-(1-(2-(1-(2-(1-(2-(2,6-dioxopiperidin-3-yl)-1,3-dioxoisoindolin-4-yl)piperidin-4-yl)acetyl)piperidin-4-yl)ethyl)piperidin-4-yl)-1H-pyrazol-4-yl)pyrazine-2-carboxylate] |  |  | 45.56% | 22.39% | 
86.09% | 88.6% | 9.00 | Nc1ncc(-c2cnn(C3CCN(CCCN4CCN(C(=O)CC5CCN(c6cccc7c6C(=O)N(C6CCC(=O)NC6=O)C7=O)CC5)CC4)CC3)c2)nc1C(=O)O[C@@H](C(=O)Nc1ccc(F)cc1)c1ccccc1 (stereo partly drawn) [TDH-368, (R)-2-((4-fluorophenyl)amino)-2-oxo-1-phenylethyl 3-amino-6-(1-(1-(3-(4-(2-(1-(2-(2,6-dioxopiperidin-3-yl)-1,3-dioxoisoindolin-4-yl)piperidin-4-yl)acetyl)piperazin-1-yl)propyl)piperidin-4-yl)-1H-pyrazol-4-yl)pyrazine-2-carboxylate] |  |  | 40.51% | 5.97% | 
